Experimental data published in US4879212A, “Peptide composition and method for the detection of antibodies to HTLV-III” (United Biomedical Inc., priority 1987, dated 1989).
Ends that are not written are not given here.

Key:
[1] = test system: anti HTLV-III antibodies; assay: Immunoreactivity of peptides at 1 ug per well in ELISA with pooled AIDS serum, relative to 21mer peptide; assay type: binding, human; details: for Reactivity %: 1 ug per well, pooled AIDS serum sample, 21mer peptide set as 100%
Excerpt: Various peptide analogs based on the above described amino acid sequence have been prepared. These analogs and their reactivities with the anti HTLV-III antibodies present in sera of AIDS and ARC patients are described in Example 8 and Table III. The reactivity in an ELISA test for the same amount of each peptide by weight per volume was compared with the reactivity of the 21mer peptide, which was assigned a reactivity of 100.
The 35mer peptide, 19mer peptide, 11mer peptide and eight analogues of the 21mer peptide, and overlapping 19mer peptide were prepared in their amide form according to the classical Merrifield method described herein above.
The immunoreactivity of the various peptides at 1 ug per well level was tested using a pooled AIDS serum sample. The reactivity of each peptide was compared with the reactivity of the 21mer peptide which was set as 100%.

[2] = test system: antibodies to HTLV-III
Excerpt: A third problem which has plagued this area is the possibility of false negative results.
where A492 (RC) is the absorbance reading for the reactive control and A492 (NRC) is the absorbance reading for the non-reactive control.

[3] = test system: antibodies to HTLV-III; assay type: binding, human; details: screened out from over 500 HTLV III positive AIDS serum specimens
Description: Following the procedure described in Example 1, mixtures of the 21mer peptide with the 19mer peptide with various weight ratios, from 10:1.25 to 4:1, were used as the immunoadsorbent. The wells were coated with 1 ug of the mixture. The serum samples used were two samples from patients which had been diagnosed as positive for AIDS and two samples from patients with autoimmune diseases. The two AIDS positive samples were screened out from over 500 HTLV III positive AIDS serum specimens and had been showned to be negative in ELISA using only the 21mer peptide as the immunoadsorbent.

[4] = test system: antibodies to HTLV-III; details: cited from earlier work

| Substance | Reactivity % [1] [%] | serum samples positive by Western Blot Analysis giving negative results ([2]; 12 out of 449) | accuracy of the results ([2]; cutoff point=0.1xA492 (RC)+1xA492 (NRC)) | serum samples positive by Western Blot Analysis giving negative results, out of 449 ([2]; mostly at the later stage of AIDS) | ELISA result of the two AIDS positive samples [3] | immunoreactivity (in words) [4] | immunoreactivity (in words) ([1]; observed from Table III) |
| --- | --- | --- | --- | --- | --- | --- | --- |
| Arg--Ile--Leu--Ala--Val--Glu--Arg--Tyr--Leu--Lys--Asp--Gln--Gln--Leu--Leu--Gly--Ile--Trp--Gly--Cys--Ser [Peptide 6] | 100 | about 2.67% | about 98% | 12 | negative | – | – |
| Arg-Ile-Leu-Ala-Val-Glu-Arg-Tyr-Leu-Lys-Asp-Gln-Gln-Leu--Leu-Gly-Ile-Trp-Gly-Cys-Ser-Gly-Lys-Leu-Ile-Cys-X | – | – | – | – | – | not as good as the deactivated virus | – |
| RILAVERYKLDQQLLGIWGCSGKLICTTAVPWNAS (cysteine pairing not given here) [Peptide 17] | 132.0 | – | – | – | – | – | highest immunoreactivity |
